{"source": "ChEMBL document CHEMBL2073797", "about": "“Characterization of an organic anion-transporting polypeptide (OATP-B) in human placenta” (J Clin Endocrinol Metab, 2002)", "target": "T1, Solute carrier organic anion transporter family member 2B1 (OATP2B1) (Homo sapiens, UniProt O94956)", "T1 sequence (O94956 whole entry)": "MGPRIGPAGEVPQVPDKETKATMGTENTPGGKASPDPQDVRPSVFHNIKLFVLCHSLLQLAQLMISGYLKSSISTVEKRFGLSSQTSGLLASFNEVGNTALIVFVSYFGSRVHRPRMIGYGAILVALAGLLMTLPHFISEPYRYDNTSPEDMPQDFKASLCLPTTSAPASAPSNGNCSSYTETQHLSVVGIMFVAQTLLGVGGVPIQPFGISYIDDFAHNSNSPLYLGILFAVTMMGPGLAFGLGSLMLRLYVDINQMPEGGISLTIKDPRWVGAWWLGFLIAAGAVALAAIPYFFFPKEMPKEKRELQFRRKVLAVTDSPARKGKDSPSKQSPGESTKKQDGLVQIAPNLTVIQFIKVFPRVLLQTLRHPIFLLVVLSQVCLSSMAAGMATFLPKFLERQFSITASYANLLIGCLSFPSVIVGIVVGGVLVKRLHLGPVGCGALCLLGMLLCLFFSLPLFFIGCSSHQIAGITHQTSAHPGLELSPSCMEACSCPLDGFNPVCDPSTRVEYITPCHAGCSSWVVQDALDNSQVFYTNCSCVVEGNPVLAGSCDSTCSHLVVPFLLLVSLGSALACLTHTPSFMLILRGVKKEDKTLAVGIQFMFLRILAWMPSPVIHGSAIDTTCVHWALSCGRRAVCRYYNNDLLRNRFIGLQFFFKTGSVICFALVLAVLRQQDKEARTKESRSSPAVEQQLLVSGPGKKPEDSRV", "assay": "TP_TRANSPORTER: inhibition of Estrone-3-sulfate uptake (Estrone-3-sulfate: 1 uM, Pregnenolone sulfate: 100 uM) in Xenopus laevis oocytes", "type": "functional, cell-based, Oocyte", "conditions": "Xenopus laevis oocytes expressing OATP2B1 (SLCO2B1), probe Estrone-3-sulfate (1 uM)", "note": "Where a name gives a salt, the structure may show the parent alone.", "data": [{"smiles": "CC(=O)[C@H]1CC[C@H]2[C@@H]3CC=C4C[C@@H](OS(=O)(=O)O)CC[C@]4(C)[C@H]3CC[C@]12C", "note": "[PREGNENOLONE SULFATE]", "values": [{"measurement": "inhibition at 100 µM", "result": 83, "unit": "%"}]}]}
